Reference: patent US7091033B2, “Array of toxicologically relevant canine genes and uses thereof” (Phase-1 Molecular Toxicology, Inc., priority 2000, dated 2006)

Tested on: canine genes differentially expressed in organs (liver, spleen, kidney, testes, heart, thymus)
Assay: Transcriptome profiling / differential display of tissues from canines exposed to an agent versus vehicle (reverse transcription, PCR, reamplification of bands, sequencing)
Format: in vivo
[1] = Band # CTP74A, No significant match
[2] = Band # CTP75C, No significant match
[3] = Band # CTP85D, Homo sapiens Rho-assoc XM_008814
[4] = Band # CTP1D, No significant match
[5] = Band # CTP1G, No significant match

## N.N.[Cl][Pt][Cl] [cisplatin]
Band # CTP31A, No significant match
  Expression Pattern: upregulated in cisplatin
Band # CTP41B, Homo sapiens mRNA for AB037813
  Expression Pattern: repressed in cisplatin
Band # CTP47G, No significant match
  Expression Pattern: induced with cisplatin
Band # CTP50A, No significant match
  Expression Pattern: induced with cisplatin
Band # CTP51A, Homo sapiens intestinal 1 AF219991
  Expression Pattern: induced with cisplatin
Band # CTP52B, No significant match
  Expression Pattern: induced with cisplatin
Band # CTP53A, No significant match
  Expression Pattern: induced with cisplatin
Band # CTP59A, Homo sapiens cyclin D2 (XM_012143)
  Expression Pattern: induced with cisplatin
Band # CTP62A, No significant match
  Expression Pattern: induced with cisplatin
Band # CTP63A, No significant match
  Expression Pattern: induced with cisplatin
Band # CTP64B, No significant match
  Expression Pattern: induced with cisplatin
Band # CTP67A, clone RP5-1071L10 on cl AL133228
  Expression Pattern: repressed with cisplatin
Band # CTP68F, Oryctolagus cuniculus Ne U09823
  Expression Pattern: repressed with cisplatin
Band # CTP70A, No significant match
  Expression Pattern: repressed with cisplatin
Band # CTP72B, No significant match
  Expression Pattern: repressed with cisplatin
Band # CTP73A, Homo sapiens chromosor AC026201
  Expression Pattern: repressed with cisplatin
Band # CTP73B, No significant match
  Expression Pattern: repressed with cisplatin
[1]
  Expression Pattern: repressed with carbo, trans and cisplatin
[2]
  Expression Pattern: repressed with carbo, trans and cisplatin
Band # CTP76B, No significant match
  Expression Pattern: induced with cisplatin
Band # CTP77D, No significant match
  Expression Pattern: repressed with cisplatin
Band # CTP78B, Homo sapiens SON DNA XM_009738
  Expression Pattern: induced with cisplatin
Band # CTP79B, No significant match
  Expression Pattern: induced with cisplatin
Band # CTP80A, Homo sapiens WDR4 ger AB039887
  Expression Pattern: repressed with cisplatin
Band # CTP81A, No significant match
  Expression Pattern: induced with cisplatin
[3]
  Expression Pattern: repressed with carbo, trans and cisplatin
Band # CTP86F, Homo sapiens chromodoi NM_001272
  Expression Pattern: induced with cisplatin
Band # CTP87B, Homo sapiens tetratricopi XM_009760
  Expression Pattern: induced with cisplatin
Band # CTP88A, Rattus norvegicus ribosor NM_022506
  Expression Pattern: repressed with cisplatin
Band # CTP89B, Homo sapiens genomic [AP003473
  Expression Pattern: induced with cisplatin
Band # CTP90A, Homo sapiens clone 248(AF070622)
  Expression Pattern: induced with cisplatin
Band # CTP92A, No significant match
  Expression Pattern: induced with cisplatin
Band # CTP92C, Human DNA sequence fn AL133286
  Expression Pattern: induced with cisplatin
Band # CTP93F, clone RP1-211D12 on ch Z93016
  Expression Pattern: induced with cisplatin
Band # CTP94B, Homo sapiens clathrin, h NM_008305
  Expression Pattern: induced with cisplatin
Band # CTP99A, No significant match
  Expression Pattern: repressed with cisplatin
Band # CTP100A, COX15 (yeast) homolog, BC002382
  Expression Pattern: induced with cisplatin
Band # CTP103JJ, No significant match
  Expression Pattern: induced with cisplatin
Band # CTP104I, No significant match
  Expression Pattern: repressed with cisplatin
Band # CTP109P, No significant match
  Expression Pattern: induced with cisplatin
Band # CTP110A, No significant match
  Expression Pattern: induced with cisplatin
Band # CTP111A, No significant match
  Expression Pattern: induced with cisplatin
Band # CTP112B, Bos taurus peroxiredoxin AF305561
  Expression Pattern: induced with cisplatin
Band # CTP113A, Box taurus ribosomal proi AF063243
  Expression Pattern: induced with cisplatin
Band # CTP115B, Homo sapiens chromosoi AC005899
  Expression Pattern: induced with cisplatin
Band # CTP116A, No significant match
  Expression Pattern: induced with cisplatin
Band # CTP117B, Homo sapiens similar to XM_017740
  Expression Pattern: induced with cisplatin
Band # CTP119J, H. sapiens SPR-2 mRNA 1X68560 S52
  Expression Pattern: induced with cisplatin
Band # CTP121D, Human ribosomal protein U43701
  Expression Pattern: induced with cisplatin
Band # CTP124B, No significant match
  Expression Pattern: induced with cisplatin
Band # CTP126A, No significant match
  Expression Pattern: induced with cisplatin
Band # CTP131B, Homo sapiens similar to s XM_006087
  Expression Pattern: induced with cisplatin
Band # CTP133B, No significant match
  Expression Pattern: induced with cisplatin
Band # CTP134A, No significant match
  Expression Pattern: induced with cisplatin
Band # CTP135A, Homo sapiens cDNA FLJAK021570
  Expression Pattern: induced with cisplatin
Band # CTP300B, Homo sapiens utrophin (I-NM_007124)
  Expression Pattern: repressed with cisplatin
Band # CTP304B, Homo sapiens unknov XM_002211
  Expression Pattern: induced with cisplatin
Band # CTP306B, No significant match
  Expression Pattern: induced with cisplatin
Band # CTP308KK, No significant match
  Expression Pattern: induced with cisplatin
Band # CTP309A, No significant match
  Expression Pattern: repressed with cisplatin

## N.N.O=C([O-])C1(C(=O)[O-])CCC1.[Pt+2] [carboplatin]
Band # CTP28D, Homo sapiens upstream INM_014517
  Expression Pattern: repressed in carboplatin
Band # CTP30E, Homo sapiens BAC clone AC003083
  Expression Pattern: repressed in carboplatin
Band # CTP58A, No significant match
  Expression Pattern: repressed with carboplatin
Band # CTP60B, Homo sapiens RNA bindii XM_016120
  Expression Pattern: repressed with carbo and trans platin
Band # CTP65A, Pig mRNA for endoplasm X16951
  Expression Pattern: repressed with carbo and trans platin
Band # CTP71A, Canis familiaris caveolin- U47060
  Expression Pattern: induced with carboplatin
[1]
  Expression Pattern: repressed with carbo, trans and cisplatin
[2]
  Expression Pattern: repressed with carbo, trans and cisplatin
[3]
  Expression Pattern: repressed with carbo, trans and cisplatin
Band # CTP122I, Human mRNA for KIAA0(D26067)
  Expression Pattern: repressed with carbo and transplatin
Band # CTP178B, Homo sapiens mRNA for AB040957
  Expression Pattern: induced with carboplatin
Band # CTP179K, No significant match
  Expression Pattern: induced with carboplatin
Band # CTP185C, No significant match
  Expression Pattern: induced with carbo and trans platin
Band # CTP197A, No significant match
  Expression Pattern: induced with carboplatin
Band # CTP201B, Homo sapiens, exostoses BC001174
  Expression Pattern: induced with carboplatin
Band # CTP202C, No significant match
  Expression Pattern: induced with carboplatin
Band # CTP205D, Homo sapiens similar to XM_011187
  Expression Pattern: induced with carboplatin
Band # CTP206A, Homo sapiens fatty acid c NM_013402
  Expression Pattern: repressed with carbo and transplatin
dog, in vivo
  Expression Pattern: repressed with carbo and trans platin

## COc1cc([C@@H]2c3cc4c(cc3[C@@H](O[C@@H]3O[C@@H]5CO[C@@H](C)O[C@H]5[C@H](O)[C@H]3O)[C@H]3COC(=O)[C@H]23)OCO4)cc(OC)c1O [Etoposide]
[4]
  Expression Pattern: upregulated with Etoposide, caffeine
[5]
  Expression Pattern: upregulated with Etoposide, caffeine
Band # CTP7B, No significant match
  Expression Pattern: upregulated in Etoposide treated
Band # CTP8A, No significant match
  Expression Pattern: repressed in Etoposide treated
Band # CTP8C, Human DNA sequence fn HSJ734P14
  Expression Pattern: repressed in Etoposide treated
Band # CTP10Y, Canis familiaris mitochon CFU96639
  Expression Pattern: upregulated in Etoposide treated
Band # CTP11A, cyclin-dependent kinase i BC001935
  Expression Pattern: upregulated in Etoposide treated
Band # CTP16B, Homo sapiens cDNA FLJAK000548
  Expression Pattern: repressed in Etoposide treated
Band # CTP17G, No significant match
  Expression Pattern: repressed in Etoposide treated
Band # CTP18B, No significant match
  Expression Pattern: upregulated in Etoposide treated
Band # CTP19F, Homo sapiens chromosor AC008651
  Expression Pattern: upregulated in Etoposide treated
Band # CTP34A, Homo sapiens ribosomal NM_001032
  Expression Pattern: repressed in Etoposide

## CC(=O)Oc1ccccc1C(=O)O [aspirin]
[4]
  Expression Pattern: upregulated with Etoposide, caffeine
[5]
  Expression Pattern: upregulated with Etoposide, caffeine
Band # CTP3B, Homo Sapien N-myc dow BC003175, larger band of doublet
  Expression Pattern: doublet-larger band is upregulated
Band # CTP25D, No significant match
  Expression Pattern: repressed with caffeine and aspirin
Band # CTP26A, Canis familiaris chymase U89607
  Expression Pattern: repressed with caffeine and aspirin
Band # CTP26B, H. sapiens cycA gene for X68303
  Expression Pattern: repressed with caffeine and aspirin
Band # CTP27C, Homo sapiens CTCL turn AF177227
  Expression Pattern: repressed with etoposide and aspirin
Band # CTP32D, cDNA FLJ14795 fls, clone AK027701
  Expression Pattern: repressed with caffeine and aspirin
Band # CTP144B, No significant match
  Expression Pattern: repressed with caffeine and aspirin
Band # CTP145B, No significant match
  Expression Pattern: repressed with aspirin
Band # CTP148B, Homo sapiens serine-thre AF108830
  Expression Pattern: induced with aspirin
Band # CTP161B, Canis familiaris TCTA ger AJ012166
  Expression Pattern: induced with aspirin
Band # CTP164A, No significant match
  Expression Pattern: induced with aspirin
Band # CTP215B, No significant match
  Expression Pattern: induced with aspirin
Band # CTP222D, No significant match
  Expression Pattern: induced with aspirin
